pIC50: −log10 of the molar value. The source made the active and inactive calls. The calls are words filed in the database; no cut-off is given here.
Tests used:
Homo sapiens [1] = species on record: Homo sapiens; test: Selectivity ratio of IC50 for inhibition of TSSK2 (unknown origin) to IC50 for inhibition of TTK (unknown origin)
[2] = AUC in rat at 2 mg/kg, iv; format: ADME, organism-based; design: dose 2 mg/kg; conditions: in vivo
[3] = target: Mitogen-activated protein kinase 9 (Homo sapiens, UniProt P45984); test: Inhibition of JNK2 (unknown origin) at 3 uM by Z-lyte assay relative to control
[4] = target: T1, Dual specificity protein kinase TTK (Homo sapiens, UniProt P33981); test: Displacement of kinase tracer 236 from TTK (unknown origin) by LanthaScreen Eu kinase binding assay
T1 sequence (P33981 whole entry): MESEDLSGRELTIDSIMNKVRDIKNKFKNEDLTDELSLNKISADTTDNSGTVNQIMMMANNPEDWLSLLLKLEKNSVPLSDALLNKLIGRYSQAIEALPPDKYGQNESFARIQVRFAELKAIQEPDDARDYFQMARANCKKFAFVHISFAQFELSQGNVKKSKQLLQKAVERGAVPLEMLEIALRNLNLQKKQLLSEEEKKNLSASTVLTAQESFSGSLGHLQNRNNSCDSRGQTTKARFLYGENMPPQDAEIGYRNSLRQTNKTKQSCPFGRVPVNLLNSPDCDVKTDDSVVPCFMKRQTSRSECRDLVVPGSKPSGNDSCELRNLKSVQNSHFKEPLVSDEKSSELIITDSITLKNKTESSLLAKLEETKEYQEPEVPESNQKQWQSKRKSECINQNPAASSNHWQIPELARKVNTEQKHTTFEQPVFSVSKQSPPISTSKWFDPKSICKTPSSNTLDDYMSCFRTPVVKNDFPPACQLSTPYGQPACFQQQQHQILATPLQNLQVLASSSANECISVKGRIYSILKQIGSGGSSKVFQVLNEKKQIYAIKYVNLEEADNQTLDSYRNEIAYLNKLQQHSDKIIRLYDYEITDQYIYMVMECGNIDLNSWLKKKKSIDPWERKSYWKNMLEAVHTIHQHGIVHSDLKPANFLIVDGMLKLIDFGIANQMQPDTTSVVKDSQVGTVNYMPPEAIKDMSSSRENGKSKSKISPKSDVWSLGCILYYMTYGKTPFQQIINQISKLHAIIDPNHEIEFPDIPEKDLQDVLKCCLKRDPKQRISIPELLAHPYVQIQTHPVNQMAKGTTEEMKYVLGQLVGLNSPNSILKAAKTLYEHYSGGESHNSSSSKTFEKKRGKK

Homo sapiens [5] = species on record: Homo sapiens; test: Selectivity ratio of IC50 for inhibition of MAPKAPK3 (unknown origin) to IC50 for inhibition of TTK (unknown origin)
Homo sapiens [6] = species on record: Homo sapiens; test: Selectivity ratio of IC50 for inhibition of LRRK2 G2019S mutant (unknown origin) to IC50 for inhibition of TTK (unknown origin)
[7] = target: Muscarinic acetylcholine receptor M3 (Homo sapiens) (UniProt P20309); test: Inhibition of muscarinic M3 receptor (unknown origin) at 10 uM relative to control
Homo sapiens [8] = species on record: Homo sapiens; test: Selectivity ratio of IC50 for inhibition of LRRK2 (unknown origin) to IC50 for inhibition of TTK (unknown origin)
[9] = target: Muscarinic acetylcholine receptor M1 (Homo sapiens) (UniProt P11229); test: Inhibition of muscarinic M1 receptor (unknown origin) at 10 uM relative to control
[10] = Clearance in mouse at 2 mg/kg, iv; format: ADME, organism-based; conditions: in vivo
[11] = target: Leucine-rich repeat serine/threonine-protein kinase 2 (Homo sapiens, UniProt Q5S007, G2019S); test: Inhibition of LRRK2 G2019S mutant (unknown origin) by ADAPTA assay
[12] = target: Leucine-rich repeat serine/threonine-protein kinase 2 (Homo sapiens, UniProt Q5S007); test: Inhibition of LRRK2 (unknown origin) at 3 uM by ADAPTA assay relative to control
[13] = Clearance in rat at 2 mg/kg, iv; format: ADME, organism-based; conditions: in vivo
[14] = Antitumor activity against human CAL-51 cells xenografted in CB17-SCID mouse assessed as tumor growth inhibition at 30 to 50 mg/kg, iv administered once per week for 16 days relative to control; format: functional; conditions: dose 30-50 mg/kg, time 16 day
Homo sapiens [15] = species on record: Homo sapiens; test: Selectivity ratio of IC50 for inhibition of N1-SRC (unknown origin) to IC50 for inhibition of TTK (unknown origin)
[16] = target: Proto-oncogene tyrosine-protein kinase Src (Homo sapiens, UniProt P12931); test: Inhibition of SRC N1 (unknown origin) by Z-lyte assay
[17] = target: T1, Dual specificity protein kinase TTK; test: Inhibition of TTK autophosphorylation at T686 residue in human CAL-51 cells measured after 1 hr by Western blot analysis; format: cell-based
[18] = AUC in mouse at 2 mg/kg, iv; format: ADME, organism-based; design: dose 2 mg/kg; conditions: in vivo
[19] = target: Testis-specific serine/threonine-protein kinase 2 (Homo sapiens) (UniProt Q96PF2); test: Inhibition of TSSK2 (unknown origin) at 3 uM by Z-lyte assay relative to control
CAL-51 = test: Antitumor activity against human TNBC PDX-CAL-51 cells xenografted in CB17-SCID mouse assessed as tumor growth inhibition at 25 to 80 mg/kg, iv administered once per week for 3 weeks; format: functional, organism-based; conditions: dose 25-80 mg/kg
[20] = target: T2, Serine/threonine-protein kinase Chk2 (Homo sapiens, UniProt O96017); test: Inhibition of CHK2 (unknown origin) by Z-lyte assay
[21] = Volume of distribution at steady state in rat at 2 mg/kg, iv; format: ADME, organism-based; conditions: in vivo, read-out: Vdss
Homo sapiens [22] = species on record: Homo sapiens; test: Selectivity ratio of IC50 for inhibition of TSSK1 (unknown origin) to IC50 for inhibition of TTK (unknown origin)
Homo sapiens [23] = species on record: Homo sapiens; test: Inhibition of Bombesin receptor (unknown origin) at 10 uM relative to control
[24] = Inhibition of KNL1 autophosphorylation at T943 residue in human CAL-51 cells measured after 1 hr by Western blot analysis; format: cell-based; conditions: CAL-51, 1 h
Homo sapiens [25] = species on record: Homo sapiens; test: Selectivity ratio of IC50 for inhibition of JNK2 (unknown origin) to IC50 for inhibition of TTK (unknown origin)
[26] = target: Testis-specific serine/threonine-protein kinase 1 (Homo sapiens, UniProt Q9BXA7); test: Inhibition of TSSK1 (unknown origin) by Z-lyte assay
[27] = target: Mitogen-activated protein kinase 8 (Homo sapiens, UniProt P45983); test: Inhibition of JNK1 (unknown origin) by Z-lyte assay
[28] = target: Testis-specific serine/threonine-protein kinase 2 (Homo sapiens, UniProt Q96PF2); test: Inhibition of TSSK2 (unknown origin) by Z-lyte assay
[29] = target: T2, Serine/threonine-protein kinase Chk2; test: Inhibition of CHK2 (unknown origin) at 3 uM by Z-lyte assay relative to control
[30] = target: T3, MAP kinase-activated protein kinase 3 (Homo sapiens, UniProt Q16644); test: Inhibition of MAPKAPK3 (unknown origin) at 3 uM by Z-lyte assay relative to control
Target sequence in this assay (Q16644 whole entry, looked up): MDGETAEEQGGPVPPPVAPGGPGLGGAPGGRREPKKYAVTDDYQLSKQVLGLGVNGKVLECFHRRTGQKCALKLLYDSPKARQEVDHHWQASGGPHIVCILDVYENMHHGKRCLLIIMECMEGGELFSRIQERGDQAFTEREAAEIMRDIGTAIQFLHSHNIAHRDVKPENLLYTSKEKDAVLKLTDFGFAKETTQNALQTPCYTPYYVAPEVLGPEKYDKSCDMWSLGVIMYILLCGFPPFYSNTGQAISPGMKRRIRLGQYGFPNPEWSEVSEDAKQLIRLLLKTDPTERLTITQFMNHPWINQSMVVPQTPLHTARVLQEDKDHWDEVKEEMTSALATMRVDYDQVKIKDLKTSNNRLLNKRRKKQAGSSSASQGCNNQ

[31] = target: T3, MAP kinase-activated protein kinase 3; test: Inhibition of MAPKAPK3 (unknown origin) by Z-lyte assay
Target sequence in this assay (Q16644 whole entry): as the sequence (Q16644 whole entry, looked up) above

[32] = target: Substance-K receptor (Homo sapiens) (UniProt P21452); test: Inhibition of Neurokinin NK2 receptor (unknown origin) at 10 uM relative to control
Sequence of Substance-K receptor (Homo sapiens) (P21452 whole entry): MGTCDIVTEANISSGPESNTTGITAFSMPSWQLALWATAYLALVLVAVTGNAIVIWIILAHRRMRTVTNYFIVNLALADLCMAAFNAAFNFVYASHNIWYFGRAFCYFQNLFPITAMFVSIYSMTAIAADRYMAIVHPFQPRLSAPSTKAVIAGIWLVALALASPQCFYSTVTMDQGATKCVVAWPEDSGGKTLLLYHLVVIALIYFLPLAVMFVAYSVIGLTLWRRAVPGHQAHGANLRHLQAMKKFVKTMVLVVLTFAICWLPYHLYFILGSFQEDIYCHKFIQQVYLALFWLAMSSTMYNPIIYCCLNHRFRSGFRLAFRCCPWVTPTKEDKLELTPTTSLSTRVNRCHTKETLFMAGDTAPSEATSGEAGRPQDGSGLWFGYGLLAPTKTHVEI

T2 sequence (O96017 whole entry): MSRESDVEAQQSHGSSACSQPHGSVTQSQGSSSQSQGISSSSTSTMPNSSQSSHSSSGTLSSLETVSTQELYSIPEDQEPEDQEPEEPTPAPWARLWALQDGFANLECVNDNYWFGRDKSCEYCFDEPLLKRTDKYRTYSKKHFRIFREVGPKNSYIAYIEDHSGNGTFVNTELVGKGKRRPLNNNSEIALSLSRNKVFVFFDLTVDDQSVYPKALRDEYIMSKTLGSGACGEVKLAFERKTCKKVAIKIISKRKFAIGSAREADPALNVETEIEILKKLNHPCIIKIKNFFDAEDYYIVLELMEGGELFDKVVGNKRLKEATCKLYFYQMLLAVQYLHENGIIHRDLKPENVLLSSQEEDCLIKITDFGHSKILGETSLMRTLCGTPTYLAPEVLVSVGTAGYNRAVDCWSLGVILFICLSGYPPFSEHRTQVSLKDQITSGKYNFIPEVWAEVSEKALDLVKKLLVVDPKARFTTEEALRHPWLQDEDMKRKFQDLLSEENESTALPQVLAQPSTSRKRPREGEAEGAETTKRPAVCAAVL
Sequence of Mitogen-activated protein kinase 8 (P45983 whole entry): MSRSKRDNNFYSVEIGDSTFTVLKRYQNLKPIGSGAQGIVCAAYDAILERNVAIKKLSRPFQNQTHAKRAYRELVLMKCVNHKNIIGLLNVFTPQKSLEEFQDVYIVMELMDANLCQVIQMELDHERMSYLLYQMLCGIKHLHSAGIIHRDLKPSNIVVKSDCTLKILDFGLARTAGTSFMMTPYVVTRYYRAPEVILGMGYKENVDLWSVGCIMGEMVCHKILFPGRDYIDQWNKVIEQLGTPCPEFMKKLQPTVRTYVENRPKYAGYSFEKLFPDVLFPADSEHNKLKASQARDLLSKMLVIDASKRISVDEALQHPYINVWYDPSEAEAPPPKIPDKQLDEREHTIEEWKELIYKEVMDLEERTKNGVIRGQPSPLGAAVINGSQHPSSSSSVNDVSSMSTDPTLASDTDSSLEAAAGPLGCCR
Sequence of Mitogen-activated protein kinase 9 (P45984 whole entry, looked up): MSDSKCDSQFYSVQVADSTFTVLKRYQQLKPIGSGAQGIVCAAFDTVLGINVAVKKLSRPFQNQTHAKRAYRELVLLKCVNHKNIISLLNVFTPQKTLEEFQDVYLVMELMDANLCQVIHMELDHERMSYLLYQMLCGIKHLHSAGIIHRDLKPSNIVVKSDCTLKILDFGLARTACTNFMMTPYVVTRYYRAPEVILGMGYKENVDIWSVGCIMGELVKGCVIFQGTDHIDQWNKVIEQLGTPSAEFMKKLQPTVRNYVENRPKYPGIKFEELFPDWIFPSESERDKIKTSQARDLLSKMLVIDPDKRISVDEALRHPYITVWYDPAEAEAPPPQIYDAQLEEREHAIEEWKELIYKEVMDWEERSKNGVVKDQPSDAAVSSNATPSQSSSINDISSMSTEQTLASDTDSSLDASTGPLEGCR
Sequence of Leucine-rich repeat serine/threonine-protein kinase 2 (Homo sapiens, UniProt Q5S007, G2019S) (Q5S007 whole entry G2019S): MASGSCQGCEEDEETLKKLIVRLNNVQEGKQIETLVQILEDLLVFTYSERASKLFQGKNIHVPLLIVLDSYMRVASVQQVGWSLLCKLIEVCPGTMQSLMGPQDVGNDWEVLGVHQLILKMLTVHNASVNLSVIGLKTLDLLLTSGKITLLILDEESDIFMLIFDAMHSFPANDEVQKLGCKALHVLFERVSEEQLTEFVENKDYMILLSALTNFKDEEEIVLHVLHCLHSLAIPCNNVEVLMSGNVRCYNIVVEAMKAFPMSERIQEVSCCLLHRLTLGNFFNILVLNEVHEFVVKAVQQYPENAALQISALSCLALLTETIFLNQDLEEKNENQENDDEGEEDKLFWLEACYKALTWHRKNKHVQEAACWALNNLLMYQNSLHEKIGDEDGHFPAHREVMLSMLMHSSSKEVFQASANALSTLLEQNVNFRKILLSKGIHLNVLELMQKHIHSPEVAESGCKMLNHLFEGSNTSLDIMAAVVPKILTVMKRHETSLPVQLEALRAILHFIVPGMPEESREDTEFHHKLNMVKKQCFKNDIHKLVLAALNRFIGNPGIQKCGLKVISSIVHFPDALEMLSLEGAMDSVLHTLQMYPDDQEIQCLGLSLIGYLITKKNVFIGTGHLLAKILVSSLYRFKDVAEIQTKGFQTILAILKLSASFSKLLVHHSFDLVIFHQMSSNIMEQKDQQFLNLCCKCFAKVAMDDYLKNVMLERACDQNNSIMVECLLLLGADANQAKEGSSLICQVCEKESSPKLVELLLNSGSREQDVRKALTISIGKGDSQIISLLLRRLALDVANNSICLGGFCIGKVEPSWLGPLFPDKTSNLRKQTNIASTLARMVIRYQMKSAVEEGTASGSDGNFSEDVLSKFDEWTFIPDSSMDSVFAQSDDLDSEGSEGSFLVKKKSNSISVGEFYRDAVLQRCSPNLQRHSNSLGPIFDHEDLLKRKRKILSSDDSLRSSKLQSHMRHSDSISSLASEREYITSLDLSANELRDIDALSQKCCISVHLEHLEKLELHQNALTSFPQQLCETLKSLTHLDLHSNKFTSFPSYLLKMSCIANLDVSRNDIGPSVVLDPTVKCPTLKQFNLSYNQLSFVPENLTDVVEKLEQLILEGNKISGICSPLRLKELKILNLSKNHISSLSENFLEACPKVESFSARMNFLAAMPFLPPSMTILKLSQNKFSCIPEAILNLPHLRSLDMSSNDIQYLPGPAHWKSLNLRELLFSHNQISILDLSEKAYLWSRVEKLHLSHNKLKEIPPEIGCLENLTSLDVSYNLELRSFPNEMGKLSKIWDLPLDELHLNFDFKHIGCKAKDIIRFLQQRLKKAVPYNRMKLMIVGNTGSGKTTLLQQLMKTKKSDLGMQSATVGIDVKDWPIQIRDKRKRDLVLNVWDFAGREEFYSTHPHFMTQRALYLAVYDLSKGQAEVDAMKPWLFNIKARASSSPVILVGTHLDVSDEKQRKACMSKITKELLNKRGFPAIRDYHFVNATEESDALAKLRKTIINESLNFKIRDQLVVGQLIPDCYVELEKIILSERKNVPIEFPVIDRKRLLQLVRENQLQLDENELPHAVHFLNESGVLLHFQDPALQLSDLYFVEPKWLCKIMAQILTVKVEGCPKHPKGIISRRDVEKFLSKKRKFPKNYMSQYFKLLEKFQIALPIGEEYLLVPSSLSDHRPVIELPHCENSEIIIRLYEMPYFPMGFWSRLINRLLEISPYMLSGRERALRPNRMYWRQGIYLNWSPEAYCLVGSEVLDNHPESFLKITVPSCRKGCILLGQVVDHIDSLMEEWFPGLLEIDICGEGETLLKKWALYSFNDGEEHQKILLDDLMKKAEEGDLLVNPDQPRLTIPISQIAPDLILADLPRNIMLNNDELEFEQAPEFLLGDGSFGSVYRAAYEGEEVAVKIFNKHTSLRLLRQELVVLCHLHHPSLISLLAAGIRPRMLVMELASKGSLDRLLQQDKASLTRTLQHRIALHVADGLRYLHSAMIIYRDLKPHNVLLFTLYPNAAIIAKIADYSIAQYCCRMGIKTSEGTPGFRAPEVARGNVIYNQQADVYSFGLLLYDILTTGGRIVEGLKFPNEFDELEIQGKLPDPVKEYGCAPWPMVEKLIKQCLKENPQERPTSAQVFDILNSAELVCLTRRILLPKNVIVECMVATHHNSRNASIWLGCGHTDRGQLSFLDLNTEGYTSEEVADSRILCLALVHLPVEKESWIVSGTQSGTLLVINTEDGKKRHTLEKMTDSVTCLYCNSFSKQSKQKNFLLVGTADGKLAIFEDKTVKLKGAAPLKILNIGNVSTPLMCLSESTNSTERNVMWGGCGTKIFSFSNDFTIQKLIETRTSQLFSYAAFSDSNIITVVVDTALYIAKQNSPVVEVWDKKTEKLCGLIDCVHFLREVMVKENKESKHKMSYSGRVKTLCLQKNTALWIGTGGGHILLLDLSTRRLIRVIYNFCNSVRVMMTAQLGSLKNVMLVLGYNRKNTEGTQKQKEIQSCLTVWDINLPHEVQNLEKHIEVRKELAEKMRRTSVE
Sequence of Leucine-rich repeat serine/threonine-protein kinase 2 (Homo sapiens, UniProt Q5S007) (Q5S007 whole entry): as the sequence (Q5S007 whole entry G2019S) above, with S2019G counted along it

CCc1cccc(CC)c1N1CCn2cc(-c3nc(Nc4ccc(N5CCC(C(=O)N6CC7(CN(C)C7)C6)CC5)cc4OC)nc4[nH]ccc34)cc2C1=O
Ratio IC50 (Homo sapiens [1]): 315 | AUC [2]: 18.2 µM·h | inhibition [3]: > 80% | pIC50 [4]: 8.52 | Ratio IC50 (Homo sapiens [5]): 493 | Ratio IC50 (Homo sapiens [6]): 76.3 | inhibition [7]: 80% | Ratio IC50 (Homo sapiens [8]): 114 | inhibition [9]: 80% | clearance [10]: 8.8 mL/min/kg | pIC50 [11]: 6.64 | inhibition [12]: > 80% | clearance [13]: 2.8 mL/min/kg | TGI [14]: >60% | Ratio IC50 (Homo sapiens [15]): 433 | pIC50 [16]: 5.89 | pIC50 [17]: 7.13 | AUC [18]: 5.29 µM·h | inhibition [19]: > 80% | Activity (CAL-51): Active | pIC50 [20]: 6.26 | Vd [21]: 0.66 L/kg | Ratio IC50 (Homo sapiens [22]): 11.7 | inhibition (Homo sapiens [23]): 80% | pIC50 [24]: 7.32 | Ratio IC50 (Homo sapiens [25]): 201 | pIC50 [26]: 7.46 | pIC50 [27]: 6.72 | pIC50 [28]: 6.03 | inhibition [29]: > 80% | inhibition [30]: > 80% | pIC50 [31]: 5.83 | inhibition [32]: 80%

Reference: ChEMBL document CHEMBL5036336, “Structure-Guided Optimization Provides a Series of TTK Protein Inhibitors with Potent Antitumor Activity” (J Med Chem, 2021)
